Measured values as given in ChEMBL document CHEMBL3991601, “The target landscape of clinical kinase drugs” (Science, 2017).
The source made the active and inactive calls. For most assays here, no stated cut-off is given here; in the data, actives have a measured Kd and inactives only a lower limit.

Tests used:
[1] = target: RAC-gamma serine/threonine-protein kinase (Homo sapiens, UniProt Q9Y243)
[2] = target: T1, EKC/KEOPS complex subunit TP53RK (Homo sapiens, UniProt Q96S44)
T1 sequence (Q96S44 whole entry): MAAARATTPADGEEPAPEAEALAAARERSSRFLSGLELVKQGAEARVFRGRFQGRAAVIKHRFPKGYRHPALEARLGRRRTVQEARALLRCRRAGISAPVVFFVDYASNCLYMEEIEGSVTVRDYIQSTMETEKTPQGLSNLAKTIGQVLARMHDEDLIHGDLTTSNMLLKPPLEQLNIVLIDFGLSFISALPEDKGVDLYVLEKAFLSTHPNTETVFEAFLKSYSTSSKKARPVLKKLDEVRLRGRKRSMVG

[3] = target: Tyrosine-protein kinase FRK (Homo sapiens, UniProt P42685)
[4] = target: 5'-AMP-activated protein kinase catalytic subunit alpha-1 (Homo sapiens, UniProt Q13131)
Septin-9 = target: T2, Septin-9 (Homo sapiens, UniProt Q9UHD8)
T2 sequence (Q9UHD8 whole entry): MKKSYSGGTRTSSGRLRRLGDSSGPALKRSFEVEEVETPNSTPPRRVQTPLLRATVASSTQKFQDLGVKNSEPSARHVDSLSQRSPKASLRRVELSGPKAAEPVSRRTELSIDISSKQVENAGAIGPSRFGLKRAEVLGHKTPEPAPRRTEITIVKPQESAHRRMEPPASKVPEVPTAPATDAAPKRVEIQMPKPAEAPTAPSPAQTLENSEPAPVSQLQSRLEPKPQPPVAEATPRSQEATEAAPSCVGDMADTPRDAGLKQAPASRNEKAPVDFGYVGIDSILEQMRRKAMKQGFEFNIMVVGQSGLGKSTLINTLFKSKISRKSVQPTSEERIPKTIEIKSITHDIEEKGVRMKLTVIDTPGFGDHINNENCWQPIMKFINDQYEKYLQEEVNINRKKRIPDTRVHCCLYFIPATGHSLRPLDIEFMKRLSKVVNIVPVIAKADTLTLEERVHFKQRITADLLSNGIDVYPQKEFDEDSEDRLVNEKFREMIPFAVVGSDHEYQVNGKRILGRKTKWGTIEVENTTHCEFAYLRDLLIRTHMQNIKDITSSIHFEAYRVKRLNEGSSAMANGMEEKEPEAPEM

[5] = target: Protein kinase C alpha type (Homo sapiens, UniProt P17252)
[6] = target: T3, Serine/threonine-protein kinase Nek9 (Homo sapiens, UniProt Q8TD19)
T3 sequence (Q8TD19 whole entry): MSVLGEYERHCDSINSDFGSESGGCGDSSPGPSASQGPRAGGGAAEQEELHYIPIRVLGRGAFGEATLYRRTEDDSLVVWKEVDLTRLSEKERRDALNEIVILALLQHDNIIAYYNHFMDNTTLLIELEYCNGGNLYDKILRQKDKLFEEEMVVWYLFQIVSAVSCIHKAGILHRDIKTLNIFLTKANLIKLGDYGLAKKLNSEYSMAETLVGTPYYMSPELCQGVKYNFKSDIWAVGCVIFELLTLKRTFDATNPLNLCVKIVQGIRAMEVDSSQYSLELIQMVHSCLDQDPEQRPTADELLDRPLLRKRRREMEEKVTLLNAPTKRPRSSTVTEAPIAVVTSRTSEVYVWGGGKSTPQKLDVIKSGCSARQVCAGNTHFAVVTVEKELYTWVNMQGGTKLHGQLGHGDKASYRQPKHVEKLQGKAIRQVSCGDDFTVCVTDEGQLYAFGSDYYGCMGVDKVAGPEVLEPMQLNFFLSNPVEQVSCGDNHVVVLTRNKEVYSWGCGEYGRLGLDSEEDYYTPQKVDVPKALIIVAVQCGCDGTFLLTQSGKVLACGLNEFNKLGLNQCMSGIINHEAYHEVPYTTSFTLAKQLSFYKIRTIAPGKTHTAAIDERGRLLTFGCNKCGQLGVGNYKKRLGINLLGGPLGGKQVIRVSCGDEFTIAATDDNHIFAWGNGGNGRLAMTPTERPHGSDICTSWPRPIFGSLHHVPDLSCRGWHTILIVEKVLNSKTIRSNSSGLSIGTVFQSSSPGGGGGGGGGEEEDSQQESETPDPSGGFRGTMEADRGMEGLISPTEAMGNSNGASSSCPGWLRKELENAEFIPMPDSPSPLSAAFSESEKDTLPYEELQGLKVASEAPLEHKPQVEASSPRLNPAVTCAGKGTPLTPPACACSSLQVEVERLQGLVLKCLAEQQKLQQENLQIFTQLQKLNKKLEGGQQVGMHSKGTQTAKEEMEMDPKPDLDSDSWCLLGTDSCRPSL

[7] = target: T4, Mitogen-activated protein kinase kinase kinase kinase 3 (Homo sapiens, UniProt Q8IVH8)
T4 sequence (Q8IVH8 whole entry): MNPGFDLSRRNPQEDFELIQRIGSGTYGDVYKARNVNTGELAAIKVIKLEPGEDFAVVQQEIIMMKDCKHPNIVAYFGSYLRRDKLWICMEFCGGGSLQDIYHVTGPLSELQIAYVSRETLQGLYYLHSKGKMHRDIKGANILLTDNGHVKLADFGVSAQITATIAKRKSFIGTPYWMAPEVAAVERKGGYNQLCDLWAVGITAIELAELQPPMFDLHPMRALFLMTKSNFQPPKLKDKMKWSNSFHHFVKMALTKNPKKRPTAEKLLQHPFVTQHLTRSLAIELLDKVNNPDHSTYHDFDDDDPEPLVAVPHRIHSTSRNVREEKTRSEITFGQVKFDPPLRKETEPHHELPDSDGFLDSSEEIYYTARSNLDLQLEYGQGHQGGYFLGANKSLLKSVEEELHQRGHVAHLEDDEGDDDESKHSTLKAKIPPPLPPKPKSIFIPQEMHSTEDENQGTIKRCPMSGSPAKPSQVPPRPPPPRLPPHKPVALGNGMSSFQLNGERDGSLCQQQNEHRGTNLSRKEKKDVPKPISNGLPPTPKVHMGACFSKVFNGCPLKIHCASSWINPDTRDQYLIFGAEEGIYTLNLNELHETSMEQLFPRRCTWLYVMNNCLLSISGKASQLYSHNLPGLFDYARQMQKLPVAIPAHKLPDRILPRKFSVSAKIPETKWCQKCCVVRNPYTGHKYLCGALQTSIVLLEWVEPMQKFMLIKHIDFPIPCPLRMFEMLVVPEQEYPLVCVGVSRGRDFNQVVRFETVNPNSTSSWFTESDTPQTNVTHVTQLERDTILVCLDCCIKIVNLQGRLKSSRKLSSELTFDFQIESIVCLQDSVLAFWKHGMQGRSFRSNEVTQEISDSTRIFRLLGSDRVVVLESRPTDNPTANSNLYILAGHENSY

[8] = target: Hepatocyte growth factor receptor (Homo sapiens, UniProt P08581)
Hepatocyte growth factor receptor, sequence (P08581 whole entry): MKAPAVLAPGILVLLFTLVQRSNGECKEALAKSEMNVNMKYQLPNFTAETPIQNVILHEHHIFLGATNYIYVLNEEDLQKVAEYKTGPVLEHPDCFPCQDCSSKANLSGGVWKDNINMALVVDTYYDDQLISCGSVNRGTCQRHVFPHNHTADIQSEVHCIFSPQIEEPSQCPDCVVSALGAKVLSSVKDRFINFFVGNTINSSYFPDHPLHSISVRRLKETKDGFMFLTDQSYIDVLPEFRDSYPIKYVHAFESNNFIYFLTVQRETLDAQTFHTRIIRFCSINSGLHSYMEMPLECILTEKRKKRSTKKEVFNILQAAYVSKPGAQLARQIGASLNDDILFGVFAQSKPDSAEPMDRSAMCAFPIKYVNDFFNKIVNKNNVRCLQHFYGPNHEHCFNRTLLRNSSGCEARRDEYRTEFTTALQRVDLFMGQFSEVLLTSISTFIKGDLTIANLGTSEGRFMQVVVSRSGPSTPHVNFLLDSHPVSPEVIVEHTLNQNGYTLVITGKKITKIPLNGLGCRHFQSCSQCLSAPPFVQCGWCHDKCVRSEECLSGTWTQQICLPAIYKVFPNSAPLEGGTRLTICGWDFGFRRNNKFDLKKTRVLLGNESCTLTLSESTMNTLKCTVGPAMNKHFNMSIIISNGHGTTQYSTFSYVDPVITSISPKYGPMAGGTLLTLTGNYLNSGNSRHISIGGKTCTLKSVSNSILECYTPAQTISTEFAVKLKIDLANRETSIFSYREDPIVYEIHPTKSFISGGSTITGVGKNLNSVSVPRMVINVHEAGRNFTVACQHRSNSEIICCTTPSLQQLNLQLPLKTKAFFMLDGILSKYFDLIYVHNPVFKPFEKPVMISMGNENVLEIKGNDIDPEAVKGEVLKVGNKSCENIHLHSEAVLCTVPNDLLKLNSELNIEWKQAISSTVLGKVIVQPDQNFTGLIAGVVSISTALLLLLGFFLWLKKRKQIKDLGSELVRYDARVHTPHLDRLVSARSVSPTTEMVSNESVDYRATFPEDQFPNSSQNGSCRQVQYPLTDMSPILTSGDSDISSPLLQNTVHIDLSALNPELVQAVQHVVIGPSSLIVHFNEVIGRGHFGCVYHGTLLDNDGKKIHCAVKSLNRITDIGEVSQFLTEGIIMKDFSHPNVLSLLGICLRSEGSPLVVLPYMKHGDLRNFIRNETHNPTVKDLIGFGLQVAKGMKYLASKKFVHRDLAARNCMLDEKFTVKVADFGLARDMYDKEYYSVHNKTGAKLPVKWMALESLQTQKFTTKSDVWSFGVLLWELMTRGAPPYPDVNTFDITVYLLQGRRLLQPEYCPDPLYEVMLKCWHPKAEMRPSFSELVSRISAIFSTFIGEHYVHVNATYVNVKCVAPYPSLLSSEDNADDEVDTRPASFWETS

RAC-gamma serine/threonine-protein kinase, sequence (Q9Y243 whole entry): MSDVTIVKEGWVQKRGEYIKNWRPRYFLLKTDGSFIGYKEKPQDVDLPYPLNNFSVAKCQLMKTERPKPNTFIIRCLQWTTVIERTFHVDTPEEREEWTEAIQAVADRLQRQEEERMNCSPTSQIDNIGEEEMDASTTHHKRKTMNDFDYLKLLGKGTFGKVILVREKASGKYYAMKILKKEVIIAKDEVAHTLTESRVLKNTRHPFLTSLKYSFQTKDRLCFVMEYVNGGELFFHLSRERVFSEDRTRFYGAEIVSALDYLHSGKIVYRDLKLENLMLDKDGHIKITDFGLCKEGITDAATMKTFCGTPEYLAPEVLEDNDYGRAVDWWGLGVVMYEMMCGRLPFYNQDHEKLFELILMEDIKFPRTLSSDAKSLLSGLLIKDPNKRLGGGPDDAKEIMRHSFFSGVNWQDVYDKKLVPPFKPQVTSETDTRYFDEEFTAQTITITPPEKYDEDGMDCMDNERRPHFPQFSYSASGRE
5'-AMP-activated protein kinase catalytic subunit alpha-1, sequence (Q13131 whole entry): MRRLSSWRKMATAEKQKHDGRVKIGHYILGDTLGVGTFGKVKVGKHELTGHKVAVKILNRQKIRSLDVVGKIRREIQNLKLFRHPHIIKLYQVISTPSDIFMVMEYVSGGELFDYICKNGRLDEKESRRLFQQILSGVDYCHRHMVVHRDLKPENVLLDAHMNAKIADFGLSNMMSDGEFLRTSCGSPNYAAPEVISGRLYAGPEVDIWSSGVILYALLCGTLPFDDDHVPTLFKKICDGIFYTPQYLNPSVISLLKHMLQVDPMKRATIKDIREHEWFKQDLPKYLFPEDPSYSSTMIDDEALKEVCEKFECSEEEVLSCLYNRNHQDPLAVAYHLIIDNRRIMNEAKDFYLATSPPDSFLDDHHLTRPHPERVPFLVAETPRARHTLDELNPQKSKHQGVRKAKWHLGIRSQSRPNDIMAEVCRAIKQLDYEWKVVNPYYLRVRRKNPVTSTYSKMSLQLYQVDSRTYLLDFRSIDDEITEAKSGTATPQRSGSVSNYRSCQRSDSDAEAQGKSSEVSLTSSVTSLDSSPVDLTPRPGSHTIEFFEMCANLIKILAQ
Tyrosine-protein kinase FRK, sequence (P42685 whole entry): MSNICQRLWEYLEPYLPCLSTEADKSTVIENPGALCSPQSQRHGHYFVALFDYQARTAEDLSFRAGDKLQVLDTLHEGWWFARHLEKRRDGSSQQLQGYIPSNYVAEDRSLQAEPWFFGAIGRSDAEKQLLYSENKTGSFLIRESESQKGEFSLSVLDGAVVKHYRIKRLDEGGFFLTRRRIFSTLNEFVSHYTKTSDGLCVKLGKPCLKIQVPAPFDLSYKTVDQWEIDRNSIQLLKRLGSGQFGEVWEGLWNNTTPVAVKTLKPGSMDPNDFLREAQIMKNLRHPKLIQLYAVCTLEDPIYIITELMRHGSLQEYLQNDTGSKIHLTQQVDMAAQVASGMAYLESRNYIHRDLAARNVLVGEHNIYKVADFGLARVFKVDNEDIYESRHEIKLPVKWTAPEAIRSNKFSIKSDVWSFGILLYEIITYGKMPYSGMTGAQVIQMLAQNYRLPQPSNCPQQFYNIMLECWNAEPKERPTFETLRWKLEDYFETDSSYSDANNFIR

COc1cc([C@@H]2c3cc4c(cc3[C@H](O)[C@H]3COC(=O)[C@@H]23)OCO4)cc(OC)c1OC [AXL-1717]
Kd [1]: > 30 µM (inactive)
Kd [2]: > 30 µM (inactive)
Kd [3]: > 30 µM (inactive)
Kd [4]: > 30 µM (inactive)
Kd (Septin-9): > 30 µM (inactive)
Kd [5]: > 30 µM (inactive)
Kd [6]: > 30 µM (inactive)
Kd [7]: > 30 µM (inactive)
Kd [8]: > 30 µM (inactive)

Cc1csc(-c2nnc(Nc3ccc(Oc4ncccc4-c4ccnc(N)n4)cc3)c3ccccc23)c1 [AMG-900]
Kd [1]: > 30 µM (inactive)
Kd [2]: > 30 µM (inactive)
Kd [3]: > 30 µM (inactive)
Kd [4]: > 30 µM (inactive)
Kd (Septin-9): > 30 µM (inactive)
Kd [5]: > 30 µM (inactive)
Kd [6]: > 30 µM (inactive)
Kd [7]: > 30 µM (inactive)
Kd [8]: > 30 µM (inactive)

COCc1c(-c2ccc(NC(=O)Nc3cc(C(F)(F)F)ccc3F)c(F)c2)c2c(N)ncnn2c1CN1CCOCC1
Kd [1]: > 30 µM (inactive)
Kd [2]: > 30 µM (inactive)
Kd [3]: 1.86 µM (active)
Kd [4]: > 30 µM (inactive)
Kd (Septin-9): > 30 µM (inactive)
Kd [5]: > 30 µM (inactive)
Kd [6]: > 30 µM (inactive)
Kd [7]: > 30 µM (inactive)
Kd [8]: > 30 µM (inactive)

Nc1ncnc2c1c(-c1cccc(OCc3ccccc3)c1)cn2[C@H]1C[C@@H](CN2CCC2)C1 [AEW-541]
Kd [1]: > 30 µM (inactive)
Kd [2]: > 30 µM (inactive)
Kd [3]: > 30 µM (inactive)
Kd [4]: > 30 µM (inactive)
Kd (Septin-9): > 30 µM (inactive)
Kd [5]: > 30 µM (inactive)
Kd [6]: > 30 µM (inactive)
Kd [7]: > 30 µM (inactive)
Kd [8]: > 30 µM (inactive)

CN1CCN(CCOc2cc(OC3CCOCC3)c3c(Nc4c(Cl)ccc5c4OCO5)ncnc3c2)CC1 [SARACATINIB]
Kd [1]: > 30 µM (inactive)
Kd [2]: > 30 µM (inactive)
Kd [3]: 2.33 µM (active)
Kd [4]: > 30 µM (inactive)
Kd (Septin-9): > 30 µM (inactive)
Kd [5]: > 30 µM (inactive)
Kd [6]: > 30 µM (inactive)
Kd [7]: > 30 µM (inactive)
Kd [8]: > 30 µM (inactive)

C=CC(=O)N1CCC[C@H](n2c(=O)n(-c3ccc(Oc4ccccc4)cc3)c3c(N)ncnc32)C1
Kd [1]: > 30 µM (inactive)
Kd [2]: > 30 µM (inactive)
Kd [3]: > 30 µM (inactive)
Kd [4]: > 30 µM (inactive)
Kd (Septin-9): > 30 µM (inactive)
Kd [5]: > 30 µM (inactive)
Kd [6]: > 30 µM (inactive)
Kd [7]: > 30 µM (inactive)
Kd [8]: > 30 µM (inactive)

COc1ccc(S(=O)(=O)N(C(C)=O)c2ccccc2/C=C/c2cc[n+]([O-])cc2)cc1 [HMN-214]
Kd [1]: > 30 µM (inactive)
Kd [2]: > 30 µM (inactive)
Kd [3]: > 30 µM (inactive)
Kd [4]: > 30 µM (inactive)
Kd (Septin-9): > 30 µM (inactive)
Kd [5]: > 30 µM (inactive)
Kd [6]: > 30 µM (inactive)
Kd [7]: > 30 µM (inactive)
Kd [8]: 1.39 µM

COc1cc2c(Nc3ccc(Cl)c(Cl)c3F)ncnc2cc1OC[C@@H]1C[C@@H]2CN(C)C[C@@H]2C1 [TESEVATINIB]
Kd [1]: > 30 µM (inactive)
Kd [2]: > 30 µM (inactive)
Kd [3]: > 30 µM (inactive)
Kd [4]: > 30 µM (inactive)
Kd (Septin-9): > 30 µM (inactive)
Kd [5]: > 30 µM (inactive)
Kd [6]: > 30 µM (inactive)
Kd [7]: 1.82 µM (active)
Kd [8]: > 30 µM (inactive)

CO[C@H]1C[C@@H]2CC[C@@H](C)[C@@](O)(O2)C(=O)C(=O)N2CCCC[C@H]2C(=O)O[C@H]([C@H](C)C[C@@H]2CC[C@@H](OC(=O)C(C)(CO)CO)[C@H](OC)C2)CC(=O)[C@H](C)/C=C(\C)[C@@H](O)[C@@H](OC)C(=O)[C@H](C)C[C@H](C)/C=C/C=C/C=C/1C [TEMSIROLIMUS]
Kd [1]: > 30 µM (inactive)
Kd [2]: > 30 µM (inactive)
Kd [3]: > 30 µM (inactive)
Kd [4]: > 30 µM (inactive)
Kd (Septin-9): > 30 µM (inactive)
Kd [5]: > 30 µM (inactive)
Kd [6]: > 30 µM (inactive)
Kd [7]: > 30 µM (inactive)
Kd [8]: > 30 µM (inactive)

Cn1cnc2c(F)c(Nc3ccc(Br)cc3F)c(C(=O)NOCCO)cc21 [BINIMETINIB]
Kd [1]: > 30 µM (inactive)
Kd [2]: > 30 µM (inactive)
Kd [3]: > 30 µM (inactive)
Kd [4]: > 30 µM (inactive)
Kd (Septin-9): > 30 µM (inactive)
Kd [5]: > 30 µM (inactive)
Kd [6]: > 30 µM (inactive)
Kd [7]: > 30 µM (inactive)
Kd [8]: > 30 µM (inactive)

COc1c(OCCCN2CCOCC2)ccc2c1N=C(NC(=O)c1cnc(N)nc1)N1CCN=C21 [COPANLISIB]
Kd [1]: > 30 µM (inactive)
Kd [2]: > 30 µM (inactive)
Kd [3]: > 30 µM (inactive)
Kd [4]: > 30 µM (inactive)
Kd (Septin-9): > 30 µM (inactive)
Kd [5]: > 30 µM (inactive)
Kd [6]: > 30 µM (inactive)
Kd [7]: > 30 µM (inactive)
Kd [8]: > 30 µM (inactive)

O=c1[nH]ccc2cc(OC3CCNCC3)ccc12 [SAR-407899 FREE BASE]
Kd [1]: > 30 µM (inactive)
Kd [2]: > 30 µM (inactive)
Kd [3]: > 30 µM (inactive)
Kd [4]: > 30 µM (inactive)
Kd (Septin-9): > 30 µM (inactive)
Kd [5]: > 30 µM (inactive)
Kd [6]: > 30 µM (inactive)
Kd [7]: > 30 µM (inactive)
Kd [8]: > 30 µM (inactive)

CNC(=O)c1cccc2cc(Oc3ccnc4cc(OCC5(N)CC5)c(OC)cc34)ccc12 [LUCITANIB]
Kd [1]: > 30 µM (inactive)
Kd [2]: > 30 µM (inactive)
Kd [3]: > 30 µM (inactive)
Kd [4]: > 30 µM (inactive)
Kd (Septin-9): > 30 µM (inactive)
Kd [5]: > 30 µM (inactive)
Kd [6]: > 30 µM (inactive)
Kd [7]: > 30 µM (inactive)
Kd [8]: > 30 µM (inactive)

C=CC(=O)Nc1cc2c(Nc3ccc(F)c(Cl)c3)ncnc2cc1C#CC(C)(C)N1CCN(C)CC1 [AV-412 FREE BASE]
Kd [1]: > 30 µM (inactive)
Kd [2]: > 30 µM (inactive)
Kd [3]: > 30 µM (inactive)
Kd [4]: > 30 µM (inactive)
Kd (Septin-9): > 30 µM (inactive)
Kd [5]: > 30 µM (inactive)
Kd [6]: > 30 µM (inactive)
Kd [7]: > 30 µM (inactive)
Kd [8]: > 30 µM (inactive)
